Source: ChEMBL document CHEMBL1201862, “PubChem BioAssay data set” (2004)
Calls of active or inactive are those of the source.

Tests used:
Cytochrome P450 2D6 = Cytochrome P450 2D6 (Homo sapiens, UniProt P10635);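 note: CYP2D6 member of a cytochrome P450 panel assay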
Cytochrome P450 1A2 = target: T1, Cytochrome P450 1A2 (Homo sapiens, UniProt P05177);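 note: PubChem cytochrome P450 panel assay, CYP1A2 panel member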
T1 sequence (P05177 whole entry): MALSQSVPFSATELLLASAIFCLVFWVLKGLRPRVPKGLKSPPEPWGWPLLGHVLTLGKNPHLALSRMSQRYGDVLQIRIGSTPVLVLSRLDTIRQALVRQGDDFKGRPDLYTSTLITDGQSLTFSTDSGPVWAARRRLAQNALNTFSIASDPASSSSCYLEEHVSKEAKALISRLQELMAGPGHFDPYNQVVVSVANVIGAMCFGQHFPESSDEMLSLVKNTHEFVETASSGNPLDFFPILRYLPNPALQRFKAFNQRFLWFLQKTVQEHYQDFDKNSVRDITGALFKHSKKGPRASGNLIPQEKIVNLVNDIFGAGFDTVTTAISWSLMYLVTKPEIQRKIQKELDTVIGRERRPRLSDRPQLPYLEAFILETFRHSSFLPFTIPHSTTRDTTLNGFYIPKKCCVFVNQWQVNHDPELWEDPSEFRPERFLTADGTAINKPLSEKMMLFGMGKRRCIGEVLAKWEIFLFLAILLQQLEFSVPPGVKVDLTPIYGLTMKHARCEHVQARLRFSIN

Streptococcus = assay: Group A Streptococcus viability loss, dose response, counter-screen for streptokinase expression inhibitor project, luminescence, BacTiterGlo (AID 1915); assay type: functional, organism-based;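 note: potency for reduction of bacterial viability or growth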
[1] = system: Streptococcus sp. 'group A'; assay: growth inhibition of control SK(-) GAS strain, dose response, counter-screen for streptokinase expression inhibitor project, luminescence, kanamycin, BacTiterGlo, confirmation (AID 1900); assay type: functional, organism-based
Cytochrome P450 2C19 = Cytochrome P450 2C19 (Homo sapiens, UniProt P33261); assay: Cytochrome panel assay with activity outcomes. Panel member name: p450-cyp2c19 Compounds with AC50 equal or less than 10 uM are considered active; assay type: functional
Cytochrome P450 2C9 = Cytochrome P450 2C9 (Homo sapiens, UniProt P11712)
[2] = target: T2, Corticotropin-releasing factor receptor 2/Corticotropin-releasing factor-binding protein (Homo sapiens, UniProt P24387+Q13324); assay: activators of CRF receptor 2 with binding protein – uHTS hits, confirmation (AID 602473); assay type: functional; conditions: read-out: EC50_Mean
T2 sequence (Q13324 whole entry): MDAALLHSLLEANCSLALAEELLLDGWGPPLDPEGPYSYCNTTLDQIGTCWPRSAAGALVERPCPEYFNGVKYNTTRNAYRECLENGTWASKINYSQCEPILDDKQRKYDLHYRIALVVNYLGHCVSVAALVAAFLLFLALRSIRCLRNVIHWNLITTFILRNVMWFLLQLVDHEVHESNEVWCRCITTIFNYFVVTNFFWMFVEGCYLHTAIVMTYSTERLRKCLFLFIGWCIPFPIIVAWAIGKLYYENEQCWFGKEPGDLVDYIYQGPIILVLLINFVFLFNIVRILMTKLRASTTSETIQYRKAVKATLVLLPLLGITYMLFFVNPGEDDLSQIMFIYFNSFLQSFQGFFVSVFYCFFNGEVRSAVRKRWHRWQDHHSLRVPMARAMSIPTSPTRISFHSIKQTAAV
T2 sequence (P24387 whole entry): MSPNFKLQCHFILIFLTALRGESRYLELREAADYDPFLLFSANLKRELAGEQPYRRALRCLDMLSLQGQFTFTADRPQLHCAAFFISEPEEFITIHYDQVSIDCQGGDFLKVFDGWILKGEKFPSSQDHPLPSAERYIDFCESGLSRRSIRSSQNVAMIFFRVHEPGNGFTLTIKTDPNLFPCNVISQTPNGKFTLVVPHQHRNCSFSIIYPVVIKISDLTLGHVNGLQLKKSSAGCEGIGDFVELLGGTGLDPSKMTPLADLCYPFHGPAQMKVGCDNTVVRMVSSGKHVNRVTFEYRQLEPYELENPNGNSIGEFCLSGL

[3] = inhibitors of intracellular T. cruzi replication, confirmation, NIH3T3 host cells, beta-gal luminescence (AID 2044); assay type: functional, cell-based;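 note: intracellular parasites grown in NIH/3T3 mouse fibroblasts as host cells; luminescent beta-galactosidase reporter signal from transgenic T. cruzi replicating inside host cells; inhibitors lower the luminescence signal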
[4] = cytotoxicity toward NIH3T3 fibroblasts, dose response, counter-screen, cell-based, ATP luminescence, mouse fibroblasts (AID 2010); assay type: functional;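 note: cells exposed to compound for about 90 hours before reading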

Chain of Cytochrome P450 2C19 (P33261 whole entry): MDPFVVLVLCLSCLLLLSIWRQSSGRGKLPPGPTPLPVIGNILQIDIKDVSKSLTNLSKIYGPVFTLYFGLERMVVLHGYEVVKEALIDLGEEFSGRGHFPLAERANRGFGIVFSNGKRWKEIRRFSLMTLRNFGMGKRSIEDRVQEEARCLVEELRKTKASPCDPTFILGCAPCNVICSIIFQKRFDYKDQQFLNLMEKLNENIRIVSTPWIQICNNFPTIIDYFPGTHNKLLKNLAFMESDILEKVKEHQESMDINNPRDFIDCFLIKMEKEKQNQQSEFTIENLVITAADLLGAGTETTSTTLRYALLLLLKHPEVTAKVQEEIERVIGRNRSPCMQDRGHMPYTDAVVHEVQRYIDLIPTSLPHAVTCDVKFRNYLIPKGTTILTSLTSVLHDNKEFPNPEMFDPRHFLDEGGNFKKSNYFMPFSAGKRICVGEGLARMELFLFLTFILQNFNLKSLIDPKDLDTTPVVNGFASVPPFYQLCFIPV
Chain of Cytochrome P450 2D6 (P10635 whole entry): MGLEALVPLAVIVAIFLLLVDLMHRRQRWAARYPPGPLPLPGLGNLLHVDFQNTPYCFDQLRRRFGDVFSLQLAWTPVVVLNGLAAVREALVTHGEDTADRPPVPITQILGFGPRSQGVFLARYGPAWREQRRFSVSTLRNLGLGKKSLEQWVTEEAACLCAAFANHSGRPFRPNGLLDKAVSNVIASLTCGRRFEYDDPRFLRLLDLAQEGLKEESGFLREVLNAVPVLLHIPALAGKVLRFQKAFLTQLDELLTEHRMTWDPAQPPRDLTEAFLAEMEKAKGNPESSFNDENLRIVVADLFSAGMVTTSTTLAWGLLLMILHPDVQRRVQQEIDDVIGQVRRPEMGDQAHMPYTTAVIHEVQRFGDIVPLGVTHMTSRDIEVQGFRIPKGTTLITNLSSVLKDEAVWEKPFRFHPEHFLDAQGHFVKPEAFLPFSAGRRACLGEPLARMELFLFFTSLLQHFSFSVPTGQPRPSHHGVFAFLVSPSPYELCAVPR
Chain of Cytochrome P450 2C9 (P11712 whole entry): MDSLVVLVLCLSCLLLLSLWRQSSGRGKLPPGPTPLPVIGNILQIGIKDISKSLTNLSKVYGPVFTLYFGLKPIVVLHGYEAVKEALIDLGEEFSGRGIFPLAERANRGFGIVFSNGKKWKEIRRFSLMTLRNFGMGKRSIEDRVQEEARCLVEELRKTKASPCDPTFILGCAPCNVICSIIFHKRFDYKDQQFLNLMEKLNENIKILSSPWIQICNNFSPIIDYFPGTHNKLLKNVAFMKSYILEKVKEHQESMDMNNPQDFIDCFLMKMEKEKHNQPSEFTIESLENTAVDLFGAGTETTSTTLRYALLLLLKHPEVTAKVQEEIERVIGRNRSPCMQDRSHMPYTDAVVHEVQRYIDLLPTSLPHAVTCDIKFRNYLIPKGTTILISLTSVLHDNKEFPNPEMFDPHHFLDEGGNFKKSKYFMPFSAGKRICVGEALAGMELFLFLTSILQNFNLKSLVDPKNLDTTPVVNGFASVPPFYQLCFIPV

Cc1ccc(C(=N)c2ccccc2Cc2cccc3ccccc23)c2ccccc12
AC50 (Cytochrome P450 2D6): 2.51 µM (inconclusive) | AC50 (Cytochrome P450 1A2): 1 µM (inconclusive)

Cc1ccc(C(=O)NNC(=O)CSc2nnc(-c3ccncc3)n2-c2ccc(C)cc2)cc1
AC50 (Cytochrome P450 2D6): 12.6 µM (inconclusive)

N#Cc1ccc(CN2CCCC3(CCN(C(=O)c4cnccn4)CC3)C2)cc1
AC50 (Cytochrome P450 2D6): 10 µM (inconclusive)

COc1ccc(C(=O)OCC(=O)Nc2nnc(-c3ccccc3)o2)cc1
EC50 (Streptococcus): 19.2 µM (active) | EC50 [1]: 5.97 µM (active)

Cc1ccc2c(c1)N(CC(=O)NC1CCC(C)CC1)C(=O)CO2 (centres undefined)
AC50 (Cytochrome P450 2D6): 14.1 µM (inconclusive)

C[C@H](N[C@@H](C)COc1ccccc1)[C@H](O)c1ccc(O)cc1 [ISOXSUPRINE]
AC50 (Cytochrome P450 2C19; read-out: AC50): 15.8 µM (inconclusive)

CCn1cnc2c(Nc3cccc(Cl)c3)nc(N[C@@H]3CCCC[C@H]3N)nc21
AC50 (Cytochrome P450 2C19): inconclusive

COc1ccccc1CN1CC[C@@]2(CCCN(S(=O)(=O)c3ccccc3)C2)C1
AC50 (Cytochrome P450 1A2): 25.1 µM (inconclusive)

O=C(COc1ccc2ccccc2c1)N1CCN(CC2CC3C=CC2C3)CC1 (centres undefined)
AC50 (Cytochrome P450 1A2): 22.4 µM (inconclusive)

C#CCOC(=O)Nc1ccc(=O)n(Cc2c(Cl)cccc2Cl)c1
AC50 (Cytochrome P450 2D6): 20 µM (inconclusive) | AC50 (Cytochrome P450 1A2): 12.6 µM (inconclusive)

COC(=O)[C@@]1(Cc2ccccc2)[C@H]2c3cc(C(=O)N4CCCC4)n(Cc4ccc(C(F)(F)F)nc4)c3C[C@H]2CN1C(=O)c1ccccc1
AC50 (Cytochrome P450 2D6): 25.1 µM (inconclusive)

CCN1C(=O)[C@@H]2[C@H]3C(=CC[C@@H]2C1=O)C1(OCCCO1)[C@H]1O[C@@H]1[C@H]3O
AC50 (Cytochrome P450 2C9): 5.01 µM (inconclusive)

CN(C)CCCNc1c2c(=O)n(C)c(=O)nc-2n(C)c2ccccc12
AC50 (Cytochrome P450 1A2): 5.01 µM (inconclusive)

CC(C)c1cc(-c2cc(C(=O)NCc3ccccc3)on2)nc(NCC2CC2)n1
EC50 [2]: 10.2 µM (active)

COc1ccc(C(=O)c2sc(Nc3cccc(OC)c3)c(C(=O)Nc3cccc(C)c3C)c2N)cc1
EC50 [2]: > 53 µM (inactive)

Cc1ccc2nc(-c3ccccc3)c(CN(C)C)c(O)c2c1
AC50 (Cytochrome P450 2C9): 12.6 µM (inconclusive) | AC50 (Cytochrome P450 1A2): 15.8 µM (inconclusive) | AC50 (Cytochrome P450 2C19; read-out: AC50): 20 µM (inconclusive)

Cc1ccnc(NC(=O)c2cc([N+](=O)[O-])cc([N+](=O)[O-])c2)c1
EC50 [3]: 0.193 µM (active) | EC50 [4]: > 60 µM (not active)

O=[N+]([O-])c1cc(Oc2cccnc2)cc([N+](=O)[O-])c1
EC50 [3]: 0.503 µM (active) | EC50 [4]: > 60 µM (not active)

CC(=O)N1CCC(=O)N(C(C)C)c2ccccc21
AC50 (Cytochrome P450 2C9): 0.0282 µM (inconclusive)

COc1c(Cl)cc(-c2noc(C)c2C(=O)NCc2ccc3c(c2)OCO3)cc1Cl
EC50 [2]: > 53 µM (inactive)

O=C(CCS(=O)(=O)c1cccs1)N1CCN(c2ccc(F)cc2)CC1
AC50 (Cytochrome P450 2C9): 2.51 µM (inconclusive) | AC50 (Cytochrome P450 1A2): 31.6 µM (inconclusive)

O=C(Nc1ccncc1)c1cc(S(=O)(=O)N2CCN(c3ccccc3)CC2)ccc1Cl
EC50 [3]: 2.56 µM (active) | EC50 [4]: > 30 µM (not active)

N#CCCn1c(=O)c(-c2ccc(F)cc2)nc2cnc(Oc3cccc(Cl)c3)nc21
AC50 (Cytochrome P450 1A2): 0.501 µM (inconclusive)

COc1ccc(C(=O)C(OC(=O)CNC(=O)c2ccco2)c2ccccc2)cc1 (centres undefined)
AC50 (Cytochrome P450 2D6): 35.5 µM (inconclusive) | AC50 (Cytochrome P450 1A2): 31.6 µM (inconclusive)

Cc1cccc(-n2c(SCc3ccc([N+](=O)[O-])cc3)nnc2-c2c[nH]c3ccccc23)c1
EC50 [3]: 1.77 µM (active) | EC50 [4]: > 60 µM (not active)

Cc1cc(SCC(=O)c2ccc(Br)cc2)cc(C)[o+]1
AC50 (Cytochrome P450 2D6): 3.16 µM (inconclusive) | AC50 (Cytochrome P450 2C19; read-out: AC50): 0.398 µM (inconclusive)

O=C(NC(=S)Nc1ccc(CN2CCCCC2)cc1)c1cccc(OCc2ccccc2)c1
EC50 [3]: 1.09 µM (active) | EC50 [4]: > 60 µM (not active)

CCOC(=O)c1c(-c2ccccc2)csc1NC(=O)/C(C#N)=C\c1ccc(O)c(OC)c1
EC50 [2]: 6.49 µM (active)

Cc1ccc(SCc2n[nH]c3c2C(C(C)C)C(C#N)=C(N)O3)cc1 (centres undefined)
AC50 (Cytochrome P450 2D6): 0.00316 µM (inconclusive)

O=S(=O)(c1ccccc1)c1cnn2c(C(F)(F)F)cc(-c3ccccc3)nc12
AC50 (Cytochrome P450 2C9): 0.708 µM (inconclusive) | AC50 (Cytochrome P450 2C19; read-out: AC50): 39.8 µM (inconclusive)

CCOc1ccc(N2C(=O)CS/C2=N/NC(=O)COc2ccc3ccccc3c2)cc1
AC50 (Cytochrome P450 2D6): 39.8 µM (inconclusive) | AC50 (Cytochrome P450 2C9): 31.6 µM (inconclusive)

Oc1ccc(Oc2nc(N3CCOCC3)nc(N3CCOCC3)n2)nn1
AC50 (Cytochrome P450 2C19; read-out: AC50): 2.82 µM (inconclusive)

COc1ccc(NC(=O)OC(C)C)cc1
AC50 (Cytochrome P450 2D6): 35.5 µM (inconclusive) | AC50 (Cytochrome P450 2C9): 14.1 µM (inconclusive) | AC50 (Cytochrome P450 2C19; read-out: AC50): 28.2 µM (inconclusive)

COCc1c(C(=O)OCC(=O)N2c3ccccc3NC(=O)C2(C)C)oc2ccccc12
AC50 (Cytochrome P450 2C9): 31.6 µM (inconclusive) | AC50 (Cytochrome P450 2C19; read-out: AC50): 20 µM (inconclusive)

Cc1ccc(-c2ccc(=O)n(CC(=O)N3CCN(c4cccc(C)c4)C(C)C3)n2)cc1 (centres undefined)
AC50 (Cytochrome P450 2D6): 28.2 µM (inconclusive) | AC50 (Cytochrome P450 2C9): 20 µM (inconclusive) | AC50 (Cytochrome P450 1A2): 20 µM (inconclusive)

O=C(CSc1nc2ccccc2s1)c1sc2sc3ccccc3[n+]2c1O
AC50 (Cytochrome P450 2C9): 6.31 µM (inconclusive)

CCOc1ccc(NS(=O)(=O)c2ccc(C(=O)N3CCCC(C)C3)cc2)cc1 (centres undefined)
EC50 [2]: 11.1 µM (active)

Cc1cccc([C@H](C)c2cnc[nH]2)c1C [DEXMEDETOMIDINE]
AC50 (Cytochrome P450 2D6): 12.6 µM (inconclusive)

COc1cccc(C(=O)NC2CCN(C(=O)N3c4ccccc4Sc4ccccc43)CC2)c1
EC50 [3]: 2.23 µM (active) | EC50 [4]: > 60 µM (not active)

CC(=O)SC[C@@H](Cc1ccccc1)C(=O)NCC(=O)OCc1ccccc1 [ECADOTRIL]
AC50 (Cytochrome P450 2C9): 3.98 µM (inconclusive)

CCC(=O)NC(NC(=O)CC)C(Cl)Cl
AC50 (Cytochrome P450 2C9): 20 µM (inconclusive)

CCCCN(C)CCCNC(=O)c1ccc2c(c1)N(CC)C(=O)c1ccccc1[S+]2[O-] (centres undefined)
EC50 [3]: 0.238 µM (active) | EC50 [4]: > 60 µM (not active)

c1ccc(CN2CCCC3(CCCN(Cc4nc(COc5ccccc5)no4)C3)C2)cc1 (centres undefined)
EC50 [3]: 0.285 µM (active) | EC50 [4]: > 60 µM (not active)

CCOC(=O)c1ccc(NC(=O)C2CCCO2)cc1 (centres undefined)
AC50 (Cytochrome P450 2C9): 0.0251 µM (inconclusive) | AC50 (Cytochrome P450 2C19; read-out: AC50): 14.1 µM (inconclusive)

COc1ccccc1/C=C/C(=O)OCCCN(C)C
EC50 [3]: 0.794 µM (active) | EC50 [4]: > 30 µM (not active)

Cc1cc(C)c2nc3c(c([C@H](O)[C@@H]4CCCCN4)c2c1)CC/C3=C/c1ccc(Cl)cc1
AC50 (Cytochrome P450 2C9): 1 µM (inconclusive)

O=C(CN1CCCC1)Nc1ccccc1Sc1ccccc1
EC50 [2]: > 53 µM (inactive)

C=CCN1CCC2(C)c3cc(O)ccc3CC1C2C (centres undefined)
EC50 [2]: > 53 µM (inactive)

NC(=NOC(=O)Cc1ccc(-c2ccccc2)cc1)c1cccc([N+](=O)[O-])c1
AC50 (Cytochrome P450 2C9): 10 µM (inconclusive) | AC50 (Cytochrome P450 2C19; read-out: AC50): 2.82 µM (inconclusive)

CC(OC(=O)c1ccc(S(=O)(=O)NCc2ccco2)cc1)C(=O)Nc1ccc(Cl)cn1 (centres undefined)
EC50 [2]: 4.62 µM (active)

O=C(O)CCC(=O)c1ccc(-c2ccccc2)cc1 [FENBUFEN]
AC50 (Cytochrome P450 1A2): 12.6 µM (inconclusive)

Cc1cc(/C=C2\C(=N)N3N=C(S(C)(=O)=O)SC3=NC2=O)c(C)n1Cc1ccccc1
EC50 (Streptococcus): 21.1 µM (active) | EC50 [1]: 4.19 µM (active)

CCOC(=O)/C(=C\c1ccc([N+](=O)[O-])o1)NC(=O)c1ccccc1
EC50 [3]: 0.995 µM (active) | EC50 [4]: > 60 µM (not active)

c1ccc(CCNCc2ccco2)nc1
AC50 (Cytochrome P450 2D6): 2.51 µM (inconclusive) | AC50 (Cytochrome P450 1A2): 6.31 µM (inconclusive)

Cn1cc(-c2nc3cncnc3n(-c3ccccc3)c2=O)c2ccccc21
AC50 (Cytochrome P450 2C19; read-out: AC50): 39.8 µM (inconclusive)
